PMC7044277 (Nature Communications, 2020)
Where “and” joins values, the source holds several entries; their conditions need not be identical. Identical values can stand only once.

What was measured:
[1] = molecular target: DRD2 (D2 long receptor) (Homo sapiens, UniProt P14416); test: β-arrestin2 recruitment (Tango), HTLA cells; assay type: cell-based; conditions: for response, concentration-response data point (replicates): Fig_S10a, drug alone
[2] = system: 320 non-olfactory GPCRs; assay type: cell-based; conditions: compound at 1 μM
[3] = molecular target: DRD2 F1103.28A (Homo sapiens, UniProt P14416, F110A); assay type: binding; parameters: expressed in transfected cells; host or cells: HEK293T (ATCC CRL-11268); conditions: DRD2 F1103.28A; read-out: Ki
Chain of DRD2 F1103.28A (P14416 whole entry F110A): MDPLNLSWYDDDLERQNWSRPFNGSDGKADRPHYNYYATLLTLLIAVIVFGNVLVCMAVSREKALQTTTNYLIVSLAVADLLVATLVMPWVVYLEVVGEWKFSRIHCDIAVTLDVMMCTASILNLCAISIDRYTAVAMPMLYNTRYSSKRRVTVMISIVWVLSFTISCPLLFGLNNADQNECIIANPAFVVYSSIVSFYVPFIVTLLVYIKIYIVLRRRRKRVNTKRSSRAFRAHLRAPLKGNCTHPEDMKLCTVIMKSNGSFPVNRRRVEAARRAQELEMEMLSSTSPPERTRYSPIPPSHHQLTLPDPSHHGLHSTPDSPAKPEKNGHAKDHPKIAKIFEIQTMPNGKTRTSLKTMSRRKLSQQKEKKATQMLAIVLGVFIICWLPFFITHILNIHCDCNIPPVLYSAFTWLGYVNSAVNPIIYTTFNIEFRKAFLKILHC

[4] = molecular target: T1, DRD4 (D4.4 variant) (Homo sapiens, UniProt P21917); test: Gαi/o-mediated cAMP inhibition (GloSensor); assay type: cell-based; conditions: DRD4; agonist, cAMP inhibition; read-out: EC50 ± SEM
T1 sequence (P21917 1-419): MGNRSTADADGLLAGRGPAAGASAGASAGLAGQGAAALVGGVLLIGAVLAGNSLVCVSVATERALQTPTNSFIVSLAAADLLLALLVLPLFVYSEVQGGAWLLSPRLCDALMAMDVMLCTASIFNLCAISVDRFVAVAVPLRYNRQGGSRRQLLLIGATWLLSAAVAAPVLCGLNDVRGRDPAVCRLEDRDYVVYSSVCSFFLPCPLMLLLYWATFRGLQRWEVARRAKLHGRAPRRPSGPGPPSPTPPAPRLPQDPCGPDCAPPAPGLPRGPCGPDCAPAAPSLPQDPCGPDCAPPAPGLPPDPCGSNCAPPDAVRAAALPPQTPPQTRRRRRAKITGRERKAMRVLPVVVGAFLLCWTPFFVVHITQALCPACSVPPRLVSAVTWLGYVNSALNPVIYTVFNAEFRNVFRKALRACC

[5] = system: serotonin receptor (subtype not given; reference agonist serotonin); test: β-arrestin2 recruitment (Tango), agonist activity, source data Fig_S10m; assay type: cell-based, human; conditions: drug alone

Chain of DRD2 (D2 long receptor) (P14416 whole entry): as the sequence (P14416 whole entry F110A) above, with A110F counted along it

SMILES: CCOc1cccc2cc([C@@H](C)NCC3(O)CCCCC3)oc12 [O4RE6]
- β-arrestin2 recruitment agonist activity ([1]; DRD2, Tango): full agonist
- EC50 ([1]; DRD2, β-arrestin2 recruitment (Tango), read-out: EC50 ± SEM): 48.8 ± 9.47 nM
- response, concentration-response data point (replicates) ([1]; Log[Drug] -5): 104.045 and 116.205 and 96.7104 and 116.434 and 93.993 and 105.729 and 95.4582 and 106.414 and 85.5052
- response, concentration-response data point (replicates) ([1]; Log[Drug] -5.52): 89.1788 and 85.4445 and 90.8217 and 84.5796 and 80.0855 and 101.122 and 96.0613 and 81.9697 and 99.3385
- response, concentration-response data point (replicates) ([1]; Log[Drug] -6): 82.8973 and 82.5495 and 79.2486 and 94.3704 and 78.2631 and 78.6908 and 80.3531 and 91.2175 and 73.5194
- response, concentration-response data point (replicates) ([1]; Log[Drug] -6.52): 72.8482 and 85.473 and 74.6038 and 82.6009 and 103.942 and 82.378 and 70.1593 and 68.4699 and 74.397
- response, concentration-response data point (replicates) ([1]; Log[Drug] -7): 71.4846 and 69.3009 and 62.1089 and 68.8602 and 55.9009 and 59.7861 and 54.6819 and 54.8285 and 54.3284
- response, concentration-response data point (replicates) ([1]; Log[Drug] -7.52): 50.7715 and 50.9759 and 58.0792 and 57.6214 and 43.2407 and 45.9376 and 55.9749 and 62.7315 and 56.5853
- response, concentration-response data point (replicates) ([1]; Log[Drug] -8): 39.7841 and 36.3747 and 29.4664 and 31.1292 and 29.8397 and 30.2988 and 27.2382 and 26.622 and 26.0732
- response, concentration-response data point (replicates) ([1]; Log[Drug] -8.52): 13.2168 and 14.3867 and 13.161 and 13.9303 and 10.9069 and 10.856 and 10.5462 and 11.4912 and 11.2421
- response, concentration-response data point (replicates) ([1]; Log[Drug] -9): 7.123 and 6.617 and 6.837 and 5.043 and 6.064 and 6.895 and 5.588 and 6.122 and 5.826
- response, concentration-response data point (replicates) ([1]; Log[Drug] -11): 5.0524
- response, concentration-response data point (replicates) ([1]; Log[Drug] -11.52): 4.975 and 5.004 and 4.993 and 4.845 and 4.81 and 4.615 and 4.945 and 4.7318 and 4.6555
- response, concentration-response data point (replicates) ([1]; Log[Drug] -12): 4.9053 and 4.975 and 5.325 and 4.582 and 4.593 and 4.629 and 5.065 and 4.845 and 4.581
- Emax ([1]; HTLA, read-out: Emax relative to quinpirole response, DRD2, Tango): 99.6%
- β-arrestin2 recruitment response at DRD2 (source data, replicate values) ([1]; Log[Drug] -5): 73.5777 and 57.7969 and 60.7943 and 65.7822 and 71.9755 and 71.4753 and 62.0106
- β-arrestin2 recruitment response at DRD2 (source data, replicate values) ([1]; Log[Drug] -5.52): 50.6787 and 47.7474 and 41.401 and 56.0167 and 52.8546 and 51.367 and 55.6817
- β-arrestin2 recruitment response at DRD2 (source data, replicate values) ([1]; Log[Drug] -6): 39.3966 and 41.1099 and 37.2084 and 41.7585 and 38.5021 and 38.079 and 42.2149
- β-arrestin2 recruitment response at DRD2 (source data, replicate values) ([1]; Log[Drug] -6.52): 17.548 and 17.9218 and 22.2395 and 30.2893 and 22.7451 and 19.4102 and 21.7916
- β-arrestin2 recruitment response at DRD2 (source data, replicate values) ([1]; Log[Drug] -7): 9.564 and 7.739 and 7.708 and 7.415 and 7.649 and 7.113 and 9.501
- β-arrestin2 recruitment response at DRD2 (source data, replicate values) ([1]; Log[Drug] -7.52): 5.75 and 5.841 and 5.282 and 5.619 and 6.782 and 5.749 and 5.8801
- β-arrestin2 recruitment response at DRD2 (source data, replicate values) ([1]; Log[Drug] -8): 5.434 and 5.45 and 5.389 and 5.042 and 5.329 and 5.148 and 5.345
- β-arrestin2 recruitment response at DRD2 (source data, replicate values) ([1]; Log[Drug] -8.52): 5.277 and 5.01 and 4.9419 and 4.98 and 5.0858 and 5.308 and 5.178
- β-arrestin2 recruitment response at DRD2 (source data, replicate values) ([1]; Log[Drug] -9): 5.4097 and 5.385 and 5.128 and 4.863 and 4.947 and 4.805 and 4.8829
- β-arrestin2 recruitment response at DRD2 (source data, replicate values) ([1]; Log[Drug] -9.52): 5.139 and 4.887 and 4.831 and 4.75 and 5.079 and 5.123 and 4.823
- β-arrestin2 recruitment response at DRD2 (source data, replicate values) ([1]; Log[Drug] -10): 5.431 and 4.786 and 4.659 and 4.856 and 4.756 and 4.79 and 4.8682
- β-arrestin2 recruitment response at DRD2 (source data, replicate values) ([1]; Log[Drug] -10.52): 5.022 and 4.798 and 4.776 and 4.763 and 4.86 and 4.945 and 4.841
- β-arrestin2 recruitment response at DRD2 (source data, replicate values) ([1]; Log[Drug] -11): 4.915 and 4.765 and 4.615 and 4.7302 and 4.774 and 4.749 and 4.971
- β-arrestin2 recruitment response at DRD2 (source data, replicate values) ([1]; Log[Drug] -11.52): 4.946 and 4.662 and 4.627 and 4.695 and 4.751 and 4.656 and 4.732
- agonism across 320 nonolfactory GPCRs [2]: agonist efficacy at DRD2 and DRD3
- Ki [3]: 490 nM
- EC50 [4]: > 10000 nM
- response, Fig_S10m, replicate values ([5]; Log[Drug] -10): 2.7529 and -0.4377 and -1.97 and -0.5261 and 1.876 and -0.04315 and 3.796 and 2.966 and 1.035
- response, Fig_S10m, replicate values ([5]; Log[Drug] -10.52): 0.7688 and 0.004826 and -2.114 and 0.954 and 0.8686 and -0.8567 and -0.09082 and -0.6687 and 2.414
- response, Fig_S10m, replicate values ([5]; Log[Drug] -11): 1.778 and -1.268 and 4.058 and 1.198 and 1.567 and 2.185 and -0.6818 and -1.429 and -2.744
- response, Fig_S10m, replicate values ([5]; Log[Drug] -11.52): -1.448 and 1.084 and -0.9329 and 1.724 and -0.9384 and 3.221 and 2.656 and 0.1211 and -2.648
- response, Fig_S10m, replicate values ([5]; Log[Drug] -12): 3.008 and 0.9208 and 2.0444 and 1.398 and -0.9127 and 1.032 and 3.604 and 5.24 and 4.003
